In US9302999B2, “Substituted triazoles as herbicides” (E. I. DU PONT DE NEMOURS AND COMPANY, priority 2012, dated 2016):

Key:
Type in all cases: in vivo
[1] = system: sedge, umbrella (small-flower umbrella sedge, Cyperus difformis); experiment: Test C flooded paddy test: sedge, umbrella; details: scale 0 to 100 (0 no effect, 100 complete control)
How it was run: (§1)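 Rating: visual, 0–100 (100 = complete control), versus untreated controls after 13 to 15 greenhouse days. Treatment went into paddy water held at 3 cm over the soil, on plants grown to two leaves.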

[2] = system: ducksalad (Heteranthera limosa); experiment: Test C flooded paddy test: ducksalad; details: scale 0 to 100 (0 no effect, 100 complete control)
How it was run: as §1

[3] = system: velvetleaf (Abutilon theophrasti); experiment: Test A pre-/postemergence: velvetleaf; details: for Velvetleaf plant response rating: Postemergence; for Plant response rating, Velvetleaf: Preemergence
How it was run: (§2)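 Compounds, formulated with surfactant in non-phytotoxic solvent, were applied as a directed soil spray preemergence and as postemergence sprays to 2–10 cm, one- to two-leaf seedlings grown in loam soil blended with sand; visual injury, 0–100, assessed ~10 days post-treatment against untreated controls.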

[4] = system: foxtail, giant (giant foxtail, Setaria faberii); experiment: Test A pre-/postemergence: foxtail, giant; details: for Foxtail, Giant plant response rating: Postemergence; for Plant response rating, Foxtail, Giant: Preemergence
How it was run: as §2

[5] = system: crabgrass, large (large crabgrass, Digitaria sanguinalis); experiment: Test A pre-/postemergence: crabgrass, large; details: for Crabgrass, Large plant response rating: Postemergence; for Plant response rating, Crabgrass, Large: Preemergence
How it was run: as §2

[6] = system: pigweed (Amaranthus retroflexus); experiment: Test A pre-/postemergence: pigweed; details: for Pigweed plant response rating: Postemergence; for Plant response rating, Pigweed: Preemergence
How it was run: as §2

corn (Zea mays) = experiment: Test A pre-/postemergence: corn; details: for Corn plant response rating: Postemergence; for Plant response rating, Corn: Preemergence
How it was run: as §2

[7] = system: barnyardgrass (Echinochloa crus-galli); experiment: Test A pre-/postemergence: barnyardgrass; details: for Barnyardgrass plant response rating: Postemergence; for Plant response rating, Barnyardgrass: Preemergence
How it was run: as §2

[8] = system: barnyardgrass (Echinochloa crus-galli); experiment: Test C flooded paddy test: barnyardgrass; details: scale 0 to 100 (0 no effect, 100 complete control)
How it was run: as §1

[9] = system: wheat (Triticum aestivum); experiment: Test A pre-/postemergence: wheat; details: for Wheat plant response rating: Postemergence; for Plant response rating, Wheat: Preemergence
How it was run: as §2

rice (Oryza sativa) = experiment: Test C flooded paddy test: rice; details: scale 0 to 100 (0 no effect, 100 complete control)
How it was run: as §1

[10] = system: morningglory (Ipomoea spp.); experiment: Test A pre-/postemergence: morningglory; details: for Morningglory plant response rating: Postemergence; for Plant response rating, Morningglory: Preemergence
How it was run: as §2

[11] = Flood (flooded paddy test), 125 g ai/ha, visual rating after 13 to 15 days
[12] = Flood (flooded paddy test), 250 g ai/ha, visual rating after 13 to 15 days
[13] = 125 g ai/ha, 0 to 100 scale, 0 is no effect, 100 is complete control
[14] = 500 g ai/ha, visual rating on 0 to 100 scale (0 no effect, 100 complete control), approximately ten days
[15] = 125 g ai/ha, 0 to 100 scale where 0 is no effect and 100 is complete control
[16] = 500 g ai/ha, 0 to 100 scale, 0 is no effect, 100 is complete control
[17] = 125 g ai/ha, 0 to 100 scale (0 no effect, 100 complete control)

Cc1nn(-c2ccc(F)cc2)nc1Oc1cccc(C(F)(F)F)c1 [Compound 98] was tested, and the “Plant response rating, Sedge, Umbrella” value [1, 11] was 40, the “Plant response rating, Sedge, Umbrella” value [1, 12] was 80 and the “Plant response rating, Sedge, Umbrella” value ([1]; Flood, 31 g ai/ha) was 0. For the same compound, the “Plant response rating, Sedge, Umbrella” value ([1]; Flood, 62 g ai/ha) was 0, the “Plant response rating, Ducksalad” value [2, 11] was 30 and the “Plant response rating, Ducksalad” value [2, 12] was 70. The “Plant response rating, Ducksalad” value ([2]; Flood, 31 g ai/ha) was 0, the “Plant response rating, Ducksalad” value ([2]; Flood, 62 g ai/ha) was 0 and the “Velvetleaf plant response rating” value [3, 13] was 60. For the same compound, the “Velvetleaf plant response rating” value [3, 14] was 80, the “Plant response rating, Velvetleaf” value [3, 15] was 0 and the “Plant response rating, Velvetleaf” value [3, 16] was 50. For the same compound, the “Foxtail, Giant plant response rating” value [4, 13] was 80, the “Foxtail, Giant plant response rating” value [4, 14] was 90 and the “Plant response rating, Foxtail, Giant” value [4, 15] was 70. The “Plant response rating, Foxtail, Giant” value [4, 16] was 100, the “Crabgrass, Large plant response rating” value [5, 13] was 90 and the “Crabgrass, Large plant response rating” value [5, 14] was 90. The “Plant response rating, Crabgrass, Large” value [5, 17] was 80, the “Plant response rating, Crabgrass, Large” value [5, 16] was 100 and the “Pigweed plant response rating” value [6, 13] was 100. The “Pigweed plant response rating” value [6, 14] was 100, the “Plant response rating, Pigweed” value [6, 15] was 60 and the “Plant response rating, Pigweed” value [6, 16] was 100. For the same compound, the “Corn plant response rating” value (corn (Zea mays); [13]) was 20, the “Corn plant response rating” value (corn (Zea mays); [14]) was 30 and the “Plant response rating, Corn” value (corn (Zea mays); [17]) was 0. The “Plant response rating, Corn” value (corn (Zea mays); [16]) was 10, the “Barnyardgrass plant response rating” value [7, 13] was 30 and the “Barnyardgrass plant response rating” value [7, 14] was 80. The “Plant response rating, Barnyardgrass” value [7, 17] was 10, the “Plant response rating, Barnyardgrass” value [7, 16] was 60 and the “Plant response rating, Barnyardgrass” value [8, 11] was 30. The “Plant response rating, Barnyardgrass” value [8, 12] was 70, the “Plant response rating, Barnyardgrass” value ([8]; Flood, 31 g ai/ha) was 0 and the “Plant response rating, Barnyardgrass” value ([8]; Flood, 62 g ai/ha) was 0. The “Wheat plant response rating” value [9, 13] was 10, the “Wheat plant response rating” value [9, 14] was 30 and the “Plant response rating, Wheat” value [9, 15] was 0. The “Plant response rating, Wheat” value [9, 16] was 20, the “Plant response rating, Rice” value (rice (Oryza sativa); [11]) was 30 and the “Plant response rating, Rice” value (rice (Oryza sativa); [12]) was 40. The “Plant response rating, Rice” value (rice (Oryza sativa); Flood, 31 g ai/ha) was 0, the “Plant response rating, Rice” value (rice (Oryza sativa); Flood, 62 g ai/ha) was 0 and the “Morningglory plant response rating” value [10, 13] was 80. The “Morningglory plant response rating” value [10, 14] was 100, the “Plant response rating, Morningglory” value [10, 15] was 0 and the “Plant response rating, Morningglory” value [10, 16] was 10.

For Cc1nn(-c2ccc(F)cc2)nc1Oc1ccnc(C(F)(F)F)n1 [Compound 101], the “Plant response rating, Sedge, Umbrella” value [1, 11] was 50, the “Plant response rating, Sedge, Umbrella” value [1, 12] was 75 and the “Plant response rating, Sedge, Umbrella” value ([1]; Flood, 31 g ai/ha) was 0. The “Plant response rating, Sedge, Umbrella” value ([1]; Flood, 62 g ai/ha) was 0, the “Plant response rating, Ducksalad” value [2, 11] was 50 and the “Plant response rating, Ducksalad” value [2, 12] was 65. The “Plant response rating, Ducksalad” value ([2]; Flood, 31 g ai/ha) was 0, the “Plant response rating, Ducksalad” value ([2]; Flood, 62 g ai/ha) was 20 and the “Velvetleaf plant response rating” value [3, 13] was 10. The “Velvetleaf plant response rating” value [3, 14] was 20, the “Plant response rating, Velvetleaf” value [3, 15] was 0 and the “Plant response rating, Velvetleaf” value [3, 16] was 0. The “Foxtail, Giant plant response rating” value [4, 13] was 70, the “Foxtail, Giant plant response rating” value [4, 14] was 90 and the “Plant response rating, Foxtail, Giant” value [4, 15] was 100. For the same compound, the “Plant response rating, Foxtail, Giant” value [4, 16] was 100, the “Crabgrass, Large plant response rating” value [5, 13] was 70 and the “Crabgrass, Large plant response rating” value [5, 14] was 90. The “Plant response rating, Crabgrass, Large” value [5, 17] was 100, the “Plant response rating, Crabgrass, Large” value [5, 16] was 100 and the “Pigweed plant response rating” value [6, 13] was 80. The “Pigweed plant response rating” value [6, 14] was 90, the “Plant response rating, Pigweed” value [6, 15] was 100 and the “Plant response rating, Pigweed” value [6, 16] was 100. The “Corn plant response rating” value (corn (Zea mays); [13]) was 10, the “Corn plant response rating” value (corn (Zea mays); [14]) was 20 and the “Plant response rating, Corn” value (corn (Zea mays); [17]) was 0. For the same compound, the “Plant response rating, Corn” value (corn (Zea mays); [16]) was 10, the “Barnyardgrass plant response rating” value [7, 13] was 20 and the “Barnyardgrass plant response rating” value [7, 14] was 60. The “Plant response rating, Barnyardgrass” value [7, 17] was 50, the “Plant response rating, Barnyardgrass” value [7, 16] was 80 and the “Plant response rating, Barnyardgrass” value [8, 11] was 55. The “Plant response rating, Barnyardgrass” value [8, 12] was 60, the “Plant response rating, Barnyardgrass” value ([8]; Flood, 31 g ai/ha) was 0 and the “Plant response rating, Barnyardgrass” value ([8]; Flood, 62 g ai/ha) was 0. The “Wheat plant response rating” value [9, 13] was 0, the “Wheat plant response rating” value [9, 14] was 10 and the “Plant response rating, Wheat” value [9, 15] was 0. For the same compound, the “Plant response rating, Wheat” value [9, 16] was 0, the “Plant response rating, Rice” value (rice (Oryza sativa); [11]) was 15 and the “Plant response rating, Rice” value (rice (Oryza sativa); [12]) was 20. The “Plant response rating, Rice” value (rice (Oryza sativa); Flood, 31 g ai/ha) was 0, the “Plant response rating, Rice” value (rice (Oryza sativa); Flood, 62 g ai/ha) was 0 and the “Morningglory plant response rating” value [10, 13] was 40. For the same compound, the “Morningglory plant response rating” value [10, 14] was 40, the “Plant response rating, Morningglory” value [10, 15] was 0 and the “Plant response rating, Morningglory” value [10, 16] was 10.
